Reference: patent US5041570A, “Photosensitive 4,4'-diazidostilbene derivative” (priority 1988, dated 1991)
Structures can show the parent of a compound that is named as a salt.

Columns and labels:
Format in all cases: physicochemical
[1] = Solubility of photosensitive agent in polyvinylpyrrolidone/ethylcellosolve solution; settings: Table 2; 5 g polyvinylpyrrolidone in 106 g ethylcellosolve; sodium salt (*): solubility varied with crystal form
Experimental: The respective Amides synthesized in Examples 1 and 2 in amounts shown in Table 2 are dissolved in a solution comprising 5 g of polyvinylpyrrolidone (average molecular weight: 320,000) dissolved in 106 g of ethylcellosolve,to evaluate their solubility.

[2] = Solubility in 2.5% ethylcellosolve; parameters: key to Solubility in 2.5% ethylcellosolve, 25° C. / Solubility in 2.5% ethylcellosolve, 60° C.: Good: completely soluble; Fair: with small amounts of undissolved portion; Poor: with large amounts of undissolved portion; settings: for Solubility in 2.5% ethylcellosolve, 25° C. / Solubility in 2.5% ethylcellosolve, 60° C.: Table 7; for solubility (comparison in words): compared to Comparative Examples 14-16, Table 7
Experimental: (§1) The compounds shown in Table 7 were prepared using the same procedures as in Example 16, and each compound was measured for solubilities in 2.5% ethylcellosolve and water to obtain the results shown in Table 7.

[3] = Solubility in water
Experimental: as §1

[4] = Solubility in water; remark: listed apart in the source
[5] = Solubility of photosensitive agent in polyvinylpyrrolidone/ethylcellosolve solution; settings: Table 4; 5 g polyvinylpyrrolidone in 106 g ethylcellosolve; sodium salt (*): solubility varied with crystal form
[6] = Solubility in ethylcellosolve solution containing 4.5% polyvinylpyrrolidone and compatibility with binder polymers; settings: Example 20
Excerpt: A 4,4'-diazidostilbene-2,2'-disulfonic acid aqueous solution was obtained using the same procedures as in Example 15. It was mixed with dibutylamine and the pH value adjusted to 9.0 to deposit crystals. The crystals were filtered, washed with water, and dried to obtain dibutylamine salt of 4,4'-diazidostilbene-2,2'-disulfonic acid (yield: 91.2%).

[7] = listed as Comparative Example 16
[8] = listed as Comparative Example 15

Structure (SMILES): CC(CCO)NS(=O)(=O)c1cc(N=[N+]=[N-])ccc1C=Cc1ccc(N=[N+]=[N-])cc1S(=O)(=O)NC(C)CCO (stereo not shown) [Amide No. 3]
- Solubility [1]: Good

Structure (SMILES): [N-]=[N+]=Nc1ccc(C=Cc2ccc(N=[N+]=[N-])cc2S(=O)(=O)O)c(S(=O)(=O)O)c1 [Ammonium salt, reference compound]
- Solubility in 2.5% ethylcellosolve, 25° C. [2, 7]: Poor
- Solubility in 2.5% ethylcellosolve, 60° C. [2, 7]: Poor
- Solubility in water, 25° C. ([3]; Table 7, listed as Comparative Example 16): 18%
- Solubility (water, 25° C.) ([4]; Table 5, listed as Comparative Example 12): 1.8%
- Solubility [5]: Poor
- Solubility [1]: Poor

Structure (SMILES): CCOCCOS(=O)(=O)c1cc(N=[N+]=[N-])ccc1C=Cc1ccc(N=[N+]=[N-])cc1S(=O)(=O)OCCOCC [Ester B, reference compound]
- Solubility [1]: Good

Structure (SMILES): [N-]=[N+]=Nc1ccc(C=Cc2ccc(N=[N+]=[N-])cc2S(=O)(=O)O)c(S(=O)(=O)O)c1 [Example 20, dibutylamine salt of 4,4'-diazidostilbene-2,2'-disulfonic acid]
- compatibility with binder polymers [6]: high in compatibility with binder polymers
- soluble in an ethylcellosolve solution containing 4.5% polyvinylpyrrolidone [6]: ≥ 5%
- solubility in water (in words) ([4]; Example 20): very low in solubility in water

Structure (SMILES): [N-]=[N+]=Nc1ccc(C=Cc2ccc(N=[N+]=[N-])cc2S(=O)(=O)NCCO)c(S(=O)(=O)NCCO)c1 [Amide No. 2]
- Solubility [1]: Good

Structure (SMILES): CCCCN(C)S(=O)(=O)c1cc(N=[N+]=[N-])ccc1C=Cc1ccc(N=[N+]=[N-])cc1S(=O)(=O)N(C)CCCC [Amide No. 14]
- Solubility [5]: Good

Structure (SMILES): CC1CC(=Cc2ccc(N=[N+]=[N-])cc2S(=O)(=O)O)C(=O)C(=Cc2ccc(N=[N+]=[N-])cc2S(=O)(=O)O)C1 (stereo not shown) [Example 18]
- Solubility (water, 25° C.) ([4]; Table 6): 7.0%

Structure (SMILES): CCCCCCCCNS(=O)(=O)c1cc(N=[N+]=[N-])ccc1C=Cc1ccc(N=[N+]=[N-])cc1S(=O)(=O)NCCCCCCCC [Amide No. 9]
- Solubility [5]: Good

Structure (SMILES): [N-]=[N+]=Nc1ccc(C=Cc2ccc(N=[N+]=[N-])cc2S(=O)(=O)O)c(S(=O)(=O)O)c1 [Example 21]
- Solubility in 2.5% ethylcellosolve, 25° C. [2]: Good
- Solubility in 2.5% ethylcellosolve, 60° C. [2]: Good
- solubility (comparison in words) [2]: good solubilities
- Solubility in water, 25° C. ([3]; Table 7): 6.5%

Structure (SMILES): CC(C)CNS(=O)(=O)c1cc(N=[N+]=[N-])ccc1C=Cc1ccc(N=[N+]=[N-])cc1S(=O)(=O)NCC(C)C [Amide No. 10]
- Solubility [5]: Good

Structure (SMILES): CC1CC(=Cc2ccc(N=[N+]=[N-])cc2S(=O)(=O)O)C(=O)C(=Cc2ccc(N=[N+]=[N-])cc2S(=O)(=O)O)C1 (stereo not shown) [Example 19, triethylamine salt of 2,6-bis-(4'-azidobenzal)-4-methyl-cyclohexanone-2,2'-disulfonic acid]
- Solubility (water, 25° C.) ([4]; Table 6): ≥ 10%

Structure (SMILES): [N-]=[N+]=Nc1ccc(C=Cc2ccc(N=[N+]=[N-])cc2S(=O)(=O)Nc2ccccc2)c(S(=O)(=O)Nc2ccccc2)c1 [Arylamide B, reference compound]
- Solubility [5]: Poor

Structure (SMILES): CCCCCN(CCCCC)S(=O)(=O)c1cc(N=[N+]=[N-])ccc1C=Cc1ccc(N=[N+]=[N-])cc1S(=O)(=O)N(CCCCC)CCCCC [Amide No. 15]
- Solubility [5]: Good

Structure (SMILES): [N-]=[N+]=Nc1ccc(C=Cc2ccc(N=[N+]=[N-])cc2S(=O)(=O)Nc2ccccc2)c(S(=O)(=O)Nc2ccccc2)c1 [Arylamide A, reference compound]
- Solubility [1]: Poor

Structure (SMILES): CC1CC(=Cc2ccc(N=[N+]=[N-])cc2S(=O)(=O)O)C(=O)C(=Cc2ccc(N=[N+]=[N-])cc2S(=O)(=O)O)C1 (stereo not shown) [Comparative Example 13, Na salt of 2,6-bis(4'-azidobenzal)-4-methyl-cyclohexanone-2,2'-disulfonic acid, reference compound]
- Solubility (water, 25° C.) ([4]; Table 6): 0.9%

Structure (SMILES): [N-]=[N+]=Nc1ccc(C=Cc2ccc(N=[N+]=[N-])cc2S(=O)(=O)O)c(S(=O)(=O)O)c1 [Example 22]
- Solubility in 2.5% ethylcellosolve, 25° C. [2]: Good
- Solubility in 2.5% ethylcellosolve, 60° C. [2]: Good
- solubility (comparison in words) [2]: good solubilities
- Solubility in water, 25° C. ([3]; Table 7): ≥ 10%

Structure (SMILES): [N-]=[N+]=Nc1ccc(C=Cc2ccc(N=[N+]=[N-])cc2S(=O)(=O)O)c(S(=O)(=O)O)c1 [compound 11, reference compound]
- Solubility in 2.5% ethylcellosolve, 25° C. [2, 8]: Poor
- Solubility in 2.5% ethylcellosolve, 60° C. [2, 8]: Poor
- Solubility (water, 25° C.) ([4]; Table 5): 3.0%

Structure (SMILES): CCCCOS(=O)(=O)c1cc(N=[N+]=[N-])ccc1C=Cc1ccc(N=[N+]=[N-])cc1S(=O)(=O)OCCCC [Ester C, reference compound]
- Solubility [5]: Good

Structure (SMILES): COCCOCCNS(=O)(=O)c1cc(N=[N+]=[N-])ccc1C=Cc1ccc(N=[N+]=[N-])cc1S(=O)(=O)NCCOCCOC [Amide No. 7]
- Solubility [1]: Good

Structure (SMILES): CCCCCCCNS(=O)(=O)c1cc(N=[N+]=[N-])ccc1C=Cc1ccc(N=[N+]=[N-])cc1S(=O)(=O)NCCCCCCC [Amide No. 11]
- Solubility [5]: Good

Structure (SMILES): [N-]=[N+]=Nc1ccc(C=Cc2ccc(N=[N+]=[N-])cc2S(=O)(=O)[O-])c(S(=O)(=O)[O-])c1.[Na+].[Na+] [Sodium salt, sodium 4,4'-diazidostilbene-2,2'-disulfonate, reference compound]
- Solubility in 2.5% ethylcellosolve, 25° C. [2]: Fair
- Solubility in 2.5% ethylcellosolve, 60° C. [2]: Good
- Solubility (water, 25° C.) ([4]; Table 5): 3.3%
- Solubility [5]: Fair
- Solubility [1]: Fair

Structure (SMILES): [N-]=[N+]=Nc1ccc(C=Cc2ccc(N=[N+]=[N-])cc2S(=O)(=O)NCCCO)c(S(=O)(=O)NCCCO)c1 [Amide No. 1]
- Solubility [1]: Good

Structure (SMILES): CCOCCNS(=O)(=O)c1cc(N=[N+]=[N-])ccc1C=Cc1ccc(N=[N+]=[N-])cc1S(=O)(=O)NCCOCC [Amide No. 8]
- Solubility [1]: Good

Structure (SMILES): CCCNS(=O)(=O)c1cc(N=[N+]=[N-])ccc1C=Cc1ccc(N=[N+]=[N-])cc1S(=O)(=O)NCCC [Lower alkyl amide A, reference compound]
- Solubility [5]: Poor

Structure (SMILES): [N-]=[N+]=Nc1ccc(C=Cc2ccc(N=[N+]=[N-])cc2S(=O)(=O)O)c(S(=O)(=O)O)c1 [Example 17, triethylamine salt of 4,4'-diazidostilbene-2,2'-disulfonic acid]
- Solubility (water, 25° C.) ([4]; Table 5): ≥ 10%

Structure (SMILES): [N-]=[N+]=Nc1ccc(C=Cc2ccc(N=[N+]=[N-])cc2S(=O)(=O)O)c(S(=O)(=O)O)c1 [Example 16]
- Solubility (water, 25° C.) ([4]; Table 5): ≥ 10%

Structure (SMILES): [N-]=[N+]=Nc1ccc(C=Cc2ccc(N=[N+]=[N-])cc2S(=O)(=O)NCCOCCO)c(S(=O)(=O)NCCOCCO)c1 [Amide No. 4]
- Solubility [1]: Good
